Laboratory results taken from patent US20050085553A1, “Remedies for mild recognition deflict” (priority 2001, published 2005).

Tests used:
[1] = system: amyloid plaques; assay: number and area of amyloid plaques, brain sections immunostained with BAN50; type: in vivo, mouse; details: feed containing 56 ppm (about 7 mg/kg/day) for six months; sections containing dorsal hippocampus
Experimental: (§1) An Effect on Increase in Insoluble Aβ40/42 and Amyloid Plaque Formation in the Brains of Transgenic Mice with Swedish APP Mutation
Transgenic mice with Swedish amyloid precursor protein (APP) mutation (7- to 8-month old) were given solid feed containing the compound A (56 ppm) (equivalent to a dosage of about 7 mg/kg/day) or control feed for six months. After six months from the administration, one cerebral hemisphere was used for brain histological examination and the other hemisphere was used for determining the quantity of Aβ40/42. Cerebral cortex was used for measuring the quantity of Aβ. The accumulation type of insoluble Aβ40/42 protein were extracted by homogenization of the cerebral cortex in 25 times amount of Tris buffer (containing a protease inhibitor) followed by centrifugation to remove the supernatant. Then, 19 times amount of 70% formic acid was added to the insoluble precipitation and homogenized to solubilize it. After centrifugation, the supernatant was diluted to 1/20 with 1M Tris solution for neutralization and the diluted supernatant was used for determining the quantity of Aβ40/42 contained therein. Using enzyme-linked immunosorbent assay (ELISA), the quantity of accumulation-type Aβ40/42 was measured. […]

[2] = system: insoluble Aβ40; assay: quantity of insoluble Aβ40 in cerebral cortex of transgenic mice with Swedish APP mutation (ELISA); type: in vivo, mouse; details: feed containing 56 ppm (about 7 mg/kg/day) for six months, 13-14 month old mice
Experimental: as §1
(§2) Transgenic mice with Swedish amyloid precursor protein (APP) mutation (7- to 8-month old) were given solid feed containing the compound A (56 ppm) (equivalent to a dosage of about 7 mg/kg/day) or control feed for six months. After six months from the administration, one cerebral hemisphere was used for brain histological examination and the other hemisphere was used for determining the quantity of Aβ40/42. Cerebral cortex was used for measuring the quantity of Aβ. The accumulation type of insoluble Aβ40/42 protein were extracted by homogenization of the cerebral cortex in 25 times amount of Tris buffer (containing a protease inhibitor) followed by centrifugation to remove the supernatant. Then, 19 times amount of 70% formic acid was added to the insoluble precipitation and homogenized to solubilize it. After centrifugation, the supernatant was diluted to 1/20 with 1M Tris solution for neutralization and the diluted supernatant was used for determining the quantity of Aβ40/42 contained therein. Using enzyme-linked immunosorbent assay (ELISA), the quantity of accumulation-type Aβ40/42 was measured.

[3] = system: transgenic mice with Swedish APP mutation; assay: general condition of the mice during the drug administration period; type: in vivo, mouse; details: feed containing 56 ppm (about 7 mg/kg/day) for six months
Experimental: as §2

[4] = system: Fisher344 rats (27-month old, male); assay: water maze test, learning deficit in old rats; type: in vivo, rat; details: 0.3 or 1.0 mg/kg orally once a day for 14 days
Experimental: An Ameliorative Effect of the Agent on Learning Deficit in Old Rats
Fisher344 rats (27-month old, male) were previously subjected to four trials of a water maze test using a pool with a diameter of 90 cm and a platform on the surface of water in the pool. The rats with remarkable disability to swim were excluded and the rest were divided into several groups. The compound A (0.3 or 1.0 mg/kg) was orally administered to the rats once a day for 14 days. On the 10th day, the rats were subjected to four trials of a water maze test using a platform on the surface of water in a pool and confirmed again that they had no difficulty in swimming ability. Starting from the next day, the rats were subjected four times a day for 3 days to a water maze test using a pool with a diameter of 120 cm and a platform submerged below the surface of water in the pool. In this test, the time required for the rats to arrive at the platform was measured. Two trials were expressed as one block. During the behavioral pharmacological test period, the drug was administered after the test.

[5] = system: insoluble Aβ42; assay: quantity of insoluble Aβ42 in cerebral cortex of transgenic mice with Swedish APP mutation (ELISA); type: in vivo, mouse; details: feed containing 56 ppm (about 7 mg/kg/day) for six months, 13-14 month old mice
Experimental: as §1, §2

For `CN(C)CC[C@@H]1CCc2cc(OCc3ccc(-c4ccccc4)cc3)ccc2C1.Cl.O` [compound A, (R)-(+)-6-(4-biphenylyl)methoxy-2-[2-(N,N-dimethylamino)ethyl]tetralin Hydrochloride Monohydrate], the “area of amyloid plaques, relative to the vehicle group” value [1] was ~35 % of those in the vehicle group, the “number of amyloid plaques, relative to the vehicle group” value [1] was “about 40 % of those in the vehicle group” and the “reduction of quantity of insoluble Aβ40 in contrast to the vehicle group” value [2] was “about 30%”. For the same compound, the “change in the general condition of the mice including weight loss” value [3] was “no change”, the “swimming time for escape” value ([4]; final training block, compared between the groups) was “significantly shortened” and the “time required to arrive at the platform” value ([4]; water maze, large pool (120 cm), submerged platform, vs old control group) was “significantly improved”. For the same compound, the “reduction of quantity of insoluble Aβ42 in contrast to the vehicle group” value [5] was “about 30%”.
